“And” between values parts separate entries of the source, which are not always exact repeats. Equal entries are not always repeated. Where two headings read alike, the source gives them in different places.
Assays:
[1] = days 18, 21, 24, 27; for BWC = body weight change: day in parentheses in cell
Description: The animals subjected to the experiment, generally mice, are subcutaneously grafted bilaterally with 30 to 60 mg of a tumor fragment on day 0. The animals bearing tumors are randomized based on their tumor size before being subjected to the various treatments and controls. Chemotherapy begins when tumors have reached a predetermined size after grafting, depending on the type of tumor, and the animals are observed every day. […] The groups are then weighed once or twice a week until the end of the trial.
The selected tumor model was a transplantable human T-cell acute lymphoblastic leukemia (T-ALL) cell line, DND-41, implanted in SCID mice.
Hu38SB19 was formulated in phosphate buffer saline, without Ca^2+ and Mg^2+, pH7.4. Hu38SB19 was administered intravenously on days 18, 21, 24, 27 after tumor implantation.

[2] = tested on: human T-cell acute lymphoblastic leukemia (T-ALL) cell line, DND-41; assay: Antitumor efficacy against advanced DND-41 tumors implanted in SCID mice; type: in vivo; details: days 18, 21, 24, 27; for TFS = tumor free survivors: day 160; for T-C = tumor growth delay: median time to reach 750 mg
Description: This efficacy may be quantified, for example, by the log10 cell kill, which is determined according to the following formula:
log10 cell kill=T−C (days)/3.32×Td
in which T−C represents the tumor growth delay, which is the median time in days for the tumors of the treated group (T) and the tumors of the control group (C) to reach a predetermined value (1 g for example), and Td represents the time in days needed for the volume of the tumor to double in the control animals [T. H. Corbett et al., Cancer, 40: 2660-2680 (1977); F. M. Schabel et al., Cancer Drug Development, Part B, Methods in Cancer Research, 17: 3-51, New York, Academic Press Inc. (1979)]. A product is considered to be active if log10 cell kill is greater than or equal to 0.7. A product is considered to be very active if log10 cell kill is greater than 2.8.
The tumors are measured 1 to 5 times a week, depending on the tumor doubling time, until the tumor reaches approximately 2 g, or until the animal dies (if this occurs before the tumor reaches 2 g). The animals are necropsied immediately after euthanasia or death.
Tumor doubling time=3.4 days.

[3] = Palmo Ara-C 22.3 mg/kg/inj SC (total 89.2)
[4] = Palmo Ara-C 36.0 mg/kg/inj SC (total 144.0)
[5] = Palmo Ara-C 58.0 mg/kg/inj SC (total 232.0)
[6] = hu38SB19 40.0 mg/kg/inj IV (total 160.0)

With `CCCCCCCCCCCCCCCC(=O)Nc1ccn([C@@H]2O[C@H](CO)[C@@H](O)[C@@H]2O)c(=O)n1` [Palmo Ara-C] the “BWC = body weight change” value [1, 3] was −0.5 (32), the “BWC = body weight change” value [1, 4] was −4.6 (30) and the “BWC = body weight change” value [1, 5] was −6.1 (31). For the same compound, the “BWC = body weight change” value ([1]; Palmo Ara-C 96.3 mg/kg/inj SC (total 385.2)) was −26.6 (31), the “highest nontoxic dose (HNTD)” value ([1]; Palmo Ara-C alone, SC) was 58.0 mg/kg/inj and the “comment (activity class)” value [2, 3] was “Active”. The log10 cell kill [2, 3] was 2.0, the “TFS = tumor free survivors” value [2, 3] was 0/6 and the “T-C = tumor growth delay” value [2, 3] was 22.1 days. For the same compound, the log10 cell kill [2, 4] was 4.3, the “TFS = tumor free survivors” value [2, 4] was “no TFS and 0/6” and the “T-C = tumor growth delay” value [2, 4] was 48.6 days. For the same compound, the log10 cell kill [2, 5] was 5.4, the “comment (activity class)” value ([2]; Palmo Ara-C 58.0 mg/kg/inj SC (total 232.0), HNTD) was “HNTD—highly active” and the “TFS = tumor free survivors” value [2, 5] was 3/6. For the same compound, the “T-C = tumor growth delay” value [2, 5] was 60.5 days.
With “hu38SB19: humanized 38SB19 anti-CD38 antibody; VH SEQ ID NO: 66, VL chosen from SEQ ID NOS: 62 and 64” the “drug death (deaths/mice treated)” value [1, 6] was 0/6, the “BWC = body weight change” value [1, 6] was −2.1 (19) and the log10 cell kill [2, 6] was 0.5. The “TFS = tumor free survivors” value [2, 6] was 0/6, the “comment (activity class)” value ([2]; hu38SB19 40.0 mg/kg/inj IV (total 160.0), highest dose tested, 40 mg/kg) was “HDT—Inactive” and the “comment (activity class)” value ([2]; hu38SB19 40.0 mg/kg/inj IV (total 160.0), highest dose tested, listed as hu38 DB19) was “not active”. For the same compound, the “T-C = tumor growth delay” value [2, 6] was 6.1 days.
